Assay results reported in patent US10087148B2, “Quinazolines as biogenic amine transport modulators” (THE UNITED STATES OF AMERICA AS REPRESENTED BY THE …, priority 2014, dated 2018).

Each compound was assayed against T1, dopamine transporter (DAT) (Rattus norvegicus (Rat), UniProt P23977) (assay: [3H]dopamine (DA) uptake inhibition in rat brain (caudate) synaptosomes). Details: mean ± S.D.; n = 3.
Type: biochemical

T1 sequence (P23977 whole entry): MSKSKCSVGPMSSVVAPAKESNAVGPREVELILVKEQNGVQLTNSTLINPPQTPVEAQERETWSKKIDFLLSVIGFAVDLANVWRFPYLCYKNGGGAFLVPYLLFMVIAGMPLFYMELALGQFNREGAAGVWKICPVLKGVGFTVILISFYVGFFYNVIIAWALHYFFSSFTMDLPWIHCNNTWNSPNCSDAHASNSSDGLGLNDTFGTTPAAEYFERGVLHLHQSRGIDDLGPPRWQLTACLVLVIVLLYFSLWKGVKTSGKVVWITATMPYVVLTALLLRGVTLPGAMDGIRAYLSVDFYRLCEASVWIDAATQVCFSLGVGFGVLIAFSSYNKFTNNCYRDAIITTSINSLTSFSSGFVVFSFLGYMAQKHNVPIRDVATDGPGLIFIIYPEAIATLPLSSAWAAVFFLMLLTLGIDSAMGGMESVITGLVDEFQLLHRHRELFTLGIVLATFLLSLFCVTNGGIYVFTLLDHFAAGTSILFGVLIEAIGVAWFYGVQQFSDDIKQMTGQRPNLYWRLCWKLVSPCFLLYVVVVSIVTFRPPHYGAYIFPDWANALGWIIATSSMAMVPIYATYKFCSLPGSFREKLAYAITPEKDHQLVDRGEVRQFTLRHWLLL

| Compound | IC50 [nM] |
| --- | --- |
| c1ccc(C(CCNc2nc(-c3cccnc3)nc3ccccc23)c2ccccc2)cc1 [SRI-29070] | 174 ± 58 |
| c1ccc(C(CNc2nc(-c3cccnc3)nc3ccccc23)c2ccccc2)cc1 [SRI-29072] | 212 ± 49 |
| CN(C)c1ncc(-c2nc(NCCC(c3ccccc3)c3ccccc3)c3ccccc3n2)cn1 [SRI-29212] | 672 ± 204 |
| c1ccc(C(CCNc2nc(-c3ccc4[nH]ccc4c3)nc3ccccc23)c2ccccc2)cc1 [SRI-29213] | 16 ± 4 |

Same assay, conditions: mean ± S.D.; n = 3; read-out: DAT Uptake Emax

| Compound | Emax [%] |
| --- | --- |
| c1ccc(C(CCNc2nc(-c3cccnc3)nc3ccccc23)c2ccccc2)cc1 [SRI-29070] | 66 ± 4 |
| c1ccc(C(CNc2nc(-c3cccnc3)nc3ccccc23)c2ccccc2)cc1 [SRI-29072] | 71 ± 3 |
| CN(C)c1ncc(-c2nc(NCCC(c3ccccc3)c3ccccc3)c3ccccc3n2)cn1 [SRI-29212] | 67 ± 4 |
| c1ccc(C(CCNc2nc(-c3ccc4[nH]ccc4c3)nc3ccccc23)c2ccccc2)cc1 [SRI-29213] | 81 ± 3 |

Same assay, conditions: values in Table 9; read-out: Emax for DAT Uptake Inhibition

| Compound | Emax [%] |
| --- | --- |
| c1ccc(C(CCNc2nc(-c3cccnc3)nc3ccccc23)c2ccccc2)cc1 [SRI-29070] | 66 |
| c1ccc(C(CNc2nc(-c3cccnc3)nc3ccccc23)c2ccccc2)cc1 [SRI-29072] | 71 |
| CN(C)c1ncc(-c2nc(NCCC(c3ccccc3)c3ccccc3)c3ccccc3n2)cn1 [SRI-29212] | 67 |
| c1ccc(C(CCNc2nc(-c3ccc4[nH]ccc4c3)nc3ccccc23)c2ccccc2)cc1 [SRI-29213] | 81 |

What follows are compounds tested against T2, DAT (Rattus norvegicus (Rat), UniProt P23977) (assay: d-amphetamine-induced, DAT-mediated [3H]DA release (shift experiments)). Details: [Blocker]/((EC50-2/EC50-1) − 1).
T2 sequence (P23977 whole entry): as above
Type: biochemical

| Compound | Apparent Kc [µM] |
| --- | --- |
| c1ccc(C(CCNc2nc(-c3ccc4[nH]ccc4c3)nc3ccccc23)c2ccccc2)cc1 [SRI-29213] | 6.7 |

Same assay, conditions: read-out: d-Amphetamine Emax in presence of blocker, blocker concentration per row, mean ± S.D., n = 3

| Compound | Emax [%] |
| --- | --- |
| c1ccc(C(CCNc2nc(-c3ccc4[nH]ccc4c3)nc3ccccc23)c2ccccc2)cc1 [SRI-29213] | 71 ± 3 |

These compounds were tested against T1, dopamine transporter (DAT) (assay: Dopamine transporter-mediated [3H]MPP+ release (d-amphetamine-induced, shift experiments) in rat caudate synaptosomes). Details: [3H]MPP+ release; [Blocker]/((EC50-2/EC50-1) − 1).
Type: biochemical

| Compound | Apparent Kc [µM] |
| --- | --- |
| c1ccc(C(CCNc2nc(-c3cccnc3)nc3ccccc23)c2ccccc2)cc1 [SRI-29070] | 7.05 |
| c1ccc(C(CNc2nc(-c3cccnc3)nc3ccccc23)c2ccccc2)cc1 [SRI-29072] | 25.83 |
| CN(C)c1ncc(-c2nc(NCCC(c3ccccc3)c3ccccc3)c3ccccc3n2)cn1 [SRI-29212] | 64.58 |
| c1ccc(C(CCNc2nc(-c3ccc4[nH]ccc4c3)nc3ccccc23)c2ccccc2)cc1 [SRI-29213] | 0.886 |

Same assay, conditions: read-out: d-Amphetamine Emax in presence of blocker; [3H]MPP+ release; blocker concentration per row; mean ± S.D.; n = 3

| Compound | Emax [%] |
| --- | --- |
| c1ccc(C(CCNc2nc(-c3cccnc3)nc3ccccc23)c2ccccc2)cc1 [SRI-29070] | 98 ± 1 |
| c1ccc(C(CNc2nc(-c3cccnc3)nc3ccccc23)c2ccccc2)cc1 [SRI-29072] | 96 ± 3 |
| CN(C)c1ncc(-c2nc(NCCC(c3ccccc3)c3ccccc3)c3ccccc3n2)cn1 [SRI-29212] | 103 ± 2 |
| c1ccc(C(CCNc2nc(-c3ccc4[nH]ccc4c3)nc3ccccc23)c2ccccc2)cc1 [SRI-29213] | 78 ± 2 |

Each compound was assayed against T2, DAT (assay: Inhibition of [3H]WIN35428 binding to rat caudate DAT). Details: [3H]WIN35428; mean ± S.D.; n = 3.
Protocol: All of the test compounds were synthesized as described herein. […] The data from three experiments were pooled and fit to a dose-response curve equation (using KaleidaGraph; Synergy Software, Reading, Pa.) to yield an Emax and IC50 value. […] Selected compounds were also tested for their ability to inhibit [^3H]WIN35428 binding to rat caudate DAT.

| Compound | Emax [%] |
| --- | --- |
| c1ccc(C(CCNc2nc(-c3cccnc3)nc3ccccc23)c2ccccc2)cc1 [SRI-29070] | 71 ± 4 |
| c1ccc(C(CNc2nc(-c3cccnc3)nc3ccccc23)c2ccccc2)cc1 [SRI-29072] | 77 ± 2 |
| CN(C)c1ncc(-c2nc(NCCC(c3ccccc3)c3ccccc3)c3ccccc3n2)cn1 [SRI-29212] | 72 ± 4 |
| c1ccc(C(CCNc2nc(-c3ccc4[nH]ccc4c3)nc3ccccc23)c2ccccc2)cc1 [SRI-29213] | 94 ± 2 |

Same assay, conditions: [3H]WIN35428; mean ± S.D.; n = 3; unit as printed in head (text gives 1100 nM where table prints 1.1)

| Compound | IC50 [nM] |
| --- | --- |
| c1ccc(C(CCNc2nc(-c3cccnc3)nc3ccccc23)c2ccccc2)cc1 [SRI-29070] | 1800 ± 400 |
| c1ccc(C(CNc2nc(-c3cccnc3)nc3ccccc23)c2ccccc2)cc1 [SRI-29072] | 2700 ± 300 |
| CN(C)c1ncc(-c2nc(NCCC(c3ccccc3)c3ccccc3)c3ccccc3n2)cn1 [SRI-29212] | 2200 ± 500 |
| c1ccc(C(CCNc2nc(-c3ccc4[nH]ccc4c3)nc3ccccc23)c2ccccc2)cc1 [SRI-29213] | 200 |

The compounds below were run against serotonin transporter (SERT) (Rattus norvegicus (Rat), UniProt P31652) (assay: [3H]serotonin (5-HT) uptake inhibition in rat brain synaptosomes). Details: mean ± S.D.; n = 3.
Sequence of serotonin transporter (SERT) (P31652 whole entry): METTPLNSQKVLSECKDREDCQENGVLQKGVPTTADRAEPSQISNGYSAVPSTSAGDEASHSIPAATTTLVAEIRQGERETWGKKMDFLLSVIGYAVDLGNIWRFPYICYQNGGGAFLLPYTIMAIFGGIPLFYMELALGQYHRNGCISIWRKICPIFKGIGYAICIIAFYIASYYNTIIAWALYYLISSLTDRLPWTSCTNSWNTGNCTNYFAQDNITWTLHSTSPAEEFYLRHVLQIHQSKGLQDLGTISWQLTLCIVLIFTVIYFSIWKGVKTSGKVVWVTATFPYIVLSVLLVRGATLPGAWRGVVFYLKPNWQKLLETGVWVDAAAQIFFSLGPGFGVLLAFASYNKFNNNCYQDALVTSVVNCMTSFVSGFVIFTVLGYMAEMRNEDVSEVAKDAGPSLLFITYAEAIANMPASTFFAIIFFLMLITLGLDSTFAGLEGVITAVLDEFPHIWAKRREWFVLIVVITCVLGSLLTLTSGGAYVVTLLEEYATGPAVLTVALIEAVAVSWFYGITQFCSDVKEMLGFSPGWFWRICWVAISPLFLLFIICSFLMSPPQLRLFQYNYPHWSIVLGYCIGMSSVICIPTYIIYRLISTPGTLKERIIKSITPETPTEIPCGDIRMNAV
Type: biochemical
Protocol: Uptake inhibition assay for the serotonin transporter was conducted in rat brain synaptosomes as described elsewhere with minor modifications (Rothman et al., Synapse 39, 32-41 (2001)). Freshly removed whole brain minus cerebellum and caudate was homogenized in 10% ice-cold sucrose with 12 strokes of a hand-held Potter-Elvehjem homogenizer followed by centrifugation at 1000×g for 10 min. The supernatants were saved on ice and used immediately. Transporter activity at SERT was assessed using 5 nM [^3H]serotonin. The assay buffer was Krebs-phosphate buffer containing 154.4 mM NaCl, 2.9 mM KCl, 1.1 mM CaCl2, 0.83 mM MgCl2, 5 mM glucose, 1 mg/mL ascorbic acid, and 50 μM pargyline. […] Uptake inhibition assays were conducted at 25° C. and were initiated by adding 100 μL of tissue to 900 μL assay buffer containing test drug and [^3H]serotonin. Test drugs were diluted in assay buffer containing 1 mg/mL bovine serum albumin. Nonspecific uptake was measured by incubating in the presence of 10 μM indatraline. The reactions were stopped after 30 min by rapid vacuum filtration with a cell harvester (BRANDEL) over GF/B filters (Whatman) presoaked in wash buffer maintained at 25° C. (10 mM Tris-HCl, pH 7.4/150 mM NaCl). Filters were rinsed with 6 mL wash buffer and retained tritium was quantified by a MicroBeta liquid scintillation counter (PerkinElmer) after overnight extraction in 0.6 mL of liquid scintillation cocktail (Cytoscint, ICN). The data from three experiments were pooled and fit to a dose-response curve equation (using Kaleidagraph), to yield an Emax and EC50 value.

| Compound | IC50 [nM] |
| --- | --- |
| c1ccc(C(CCNc2nc(-c3cccnc3)nc3ccccc23)c2ccccc2)cc1 [SRI-29070] | 699 ± 164 |
| c1ccc(C(CNc2nc(-c3cccnc3)nc3ccccc23)c2ccccc2)cc1 [SRI-29072] | 6380 ± 2640 |
| CN(C)c1ncc(-c2nc(NCCC(c3ccccc3)c3ccccc3)c3ccccc3n2)cn1 [SRI-29212] | 3800 ± 1640 |
| c1ccc(C(CCNc2nc(-c3ccc4[nH]ccc4c3)nc3ccccc23)c2ccccc2)cc1 [SRI-29213] | 89 ± 51 |

Same assay, conditions: mean ± S.D.; n = 3; read-out: SERT Uptake Emax

| Compound | Emax [%] |
| --- | --- |
| c1ccc(C(CCNc2nc(-c3cccnc3)nc3ccccc23)c2ccccc2)cc1 [SRI-29070] | 48 ± 3 |
| c1ccc(C(CNc2nc(-c3cccnc3)nc3ccccc23)c2ccccc2)cc1 [SRI-29072] | 56 ± 9 |
| CN(C)c1ncc(-c2nc(NCCC(c3ccccc3)c3ccccc3)c3ccccc3n2)cn1 [SRI-29212] | 50 ± 7 |
| c1ccc(C(CCNc2nc(-c3ccc4[nH]ccc4c3)nc3ccccc23)c2ccccc2)cc1 [SRI-29213] | 43 ± 4 |

What follows are compounds tested against norepinephrine transporter (NET) (Rattus norvegicus, UniProt Q63380) (assay: [3H]norepinephrine (NE) uptake inhibition in rat brain synaptosomes). Details: read-out: NET Uptake Emax.
Sequence of norepinephrine transporter (NET) (Q63380 1-617): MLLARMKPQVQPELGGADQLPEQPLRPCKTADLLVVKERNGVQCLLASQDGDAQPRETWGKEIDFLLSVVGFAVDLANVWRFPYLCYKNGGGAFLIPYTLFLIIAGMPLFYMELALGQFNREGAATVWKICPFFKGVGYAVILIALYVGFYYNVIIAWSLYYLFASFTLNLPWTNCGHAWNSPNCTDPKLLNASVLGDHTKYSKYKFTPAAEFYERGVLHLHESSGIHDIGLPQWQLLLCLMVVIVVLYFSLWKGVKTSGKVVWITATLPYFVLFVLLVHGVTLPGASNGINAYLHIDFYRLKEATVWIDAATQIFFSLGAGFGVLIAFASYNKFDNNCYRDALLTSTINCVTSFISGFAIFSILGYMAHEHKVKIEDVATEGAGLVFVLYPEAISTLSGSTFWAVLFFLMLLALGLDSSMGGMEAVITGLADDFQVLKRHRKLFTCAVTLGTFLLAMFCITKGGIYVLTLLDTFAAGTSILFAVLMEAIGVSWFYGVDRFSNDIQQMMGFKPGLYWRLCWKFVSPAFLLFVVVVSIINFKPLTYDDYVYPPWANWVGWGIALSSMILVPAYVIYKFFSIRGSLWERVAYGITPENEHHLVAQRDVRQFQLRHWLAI
Type: biochemical
Protocol: Uptake inhibition assay for the norepinephrine transporter was conducted in rat brain synaptosomes as described elsewhere with minor modifications (Rothman et al., Synapse 39, 32-41 (2001)). Freshly removed whole brain minus cerebellum and caudate was homogenized in 10% ice-cold sucrose with 12 strokes of a hand-held Potter-Elvehjem homogenizer followed by centrifugation at 1000×g for 10 minutes. The supernatants were saved on ice and used immediately. Transporter activity at NET was assessed using 10 nM [^3H]norepinephrine. The assay buffer was Krebs-phosphate buffer containing 154.4 mM NaCl, 2.9 mM KCl, 1.1 mM CaCl2, 0.83 mM MgCl2, 5 mM glucose, 1 mg/mL ascorbic acid, and 50 μM pargyline. […] Uptake inhibition assays were conducted at 37° C. and were initiated by adding 100 μL of tissue to 900 μL assay buffer containing test drug and [^3H]norepinephrine. Test drugs were diluted in assay buffer containing 1 mg/mL bovine serum albumin. Nonspecific uptake was measured by incubating in the presence of 10 μM indatraline. The reactions were stopped after 10 minutes by rapid vacuum filtration with a cell harvester (BRANDEL) over GF/B filters (Whatman) presoaked in wash buffer maintained at 25° C. (10 mM Tris-HCl, pH 7.4/150 mM NaCl). Filters were rinsed with 6 mL wash buffer and retained tritium was quantified by a MicroBeta liquid scintillation counter (PerkinElmer) after overnight extraction in 0.6 mL of liquid scintillation cocktail (Cytoscint, ICN). The data from three experiments were pooled and fit to a dose-response curve equation (using Kaleidagraph), to yield an Emax and EC50 value.

| Compound | Emax [%] |
| --- | --- |
| c1ccc(C(CCNc2nc(-c3cccnc3)nc3ccccc23)c2ccccc2)cc1 [SRI-29070] | 64 ± 10 |
| c1ccc(C(CNc2nc(-c3cccnc3)nc3ccccc23)c2ccccc2)cc1 [SRI-29072] | 62 ± 5 |
| CN(C)c1ncc(-c2nc(NCCC(c3ccccc3)c3ccccc3)c3ccccc3n2)cn1 [SRI-29212] | 64 ± 5 |
| c1ccc(C(CCNc2nc(-c3ccc4[nH]ccc4c3)nc3ccccc23)c2ccccc2)cc1 [SRI-29213] | 77 ± 3 |

Same assay, conditions: read-out: NET Uptake IC50; mean ± S.D.; n = 3

| Compound | IC50 [µM] |
| --- | --- |
| c1ccc(C(CCNc2nc(-c3cccnc3)nc3ccccc23)c2ccccc2)cc1 [SRI-29070] | 1.74 ± 1.15 |
| c1ccc(C(CNc2nc(-c3cccnc3)nc3ccccc23)c2ccccc2)cc1 [SRI-29072] | 5.85 ± 1.75 |
| CN(C)c1ncc(-c2nc(NCCC(c3ccccc3)c3ccccc3)c3ccccc3n2)cn1 [SRI-29212] | 8.13 ± 2.27 |
| c1ccc(C(CCNc2nc(-c3ccc4[nH]ccc4c3)nc3ccccc23)c2ccccc2)cc1 [SRI-29213] | 0.346 ± 0.059 |
